“Also recorded” adds a separate entry of the source.

We go through 1 compound from patent US20240109855A1, “ANTI-QUORUM SENSING, ANTI-BIOFILM, AND INFLAMMATION ATTENUATING COMPOUNDS, COMPOSITIONS, AND METHODS OF USING SAME” (priority 2021, published 2024).

Data set [1] deals with Agrobacterium tumefaciens (KYC55). As to the kind of experiment: Quorum sensing inhibition test with bio-reporter KYC55 (TLC overlay). As to Degree of quorum sensing inhibition (QSI), KYC55: key: −: no inhibition; +: low inhibition; ++: medium inhibition; +++: strong inhibition. The format is cell-based. Put shortly: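 Compounds (40 mM in acetonitrile, 20 μl) were spotted on TLC and overlaid with soft agar reporter cultures, incubated overnight at 30 °C. CV026 was in LB with 500 nM 3-oxo-C6 (purple pigment), and KYC55 was in AT medium with 5 nM 3-oxo-C8 and 60 μg/ml X-gal (blue). Inhibition zone diameter was measured.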

Data set [2] has as its system gram-positive and gram-negative bacteria. As to the kind of experiment: Antibacterial activity, overall statement (diffusion discs test). Also: key: +: active; −: inactive. It counts as cell-based. The note with it: Table 6 summary. Put shortly: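 Compounds in acetonitrile at 40 mM, 20 μl dried onto filter paper discs, laid on lawns of B. subtilis, S. aureus, A. baumannii (LB agar) or S. sobrinus, S. mutans (BHI agar) from overnight cultures. Incubated overnight at 37° C; inhibition zone diameter measured.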

A further data set can be described thus: in vitro. The note with it: human, LC50. Put shortly:
(§1)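 30,000 cells/well exposed to coumaperine derivatives at varying concentrations or DMSO vehicle for 48 h at 37 °C, 5% CO2, then XTT added for 2 h. Absorbance at 450 nm minus 650 nm and blank, normalized to DMSO-treated cells (100% viability); triplicate, two independent tests, mean+SD.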

A further data set concerns L428 cells. As to the kind of experiment: in vitro. Put shortly:
as §1

A further data set concerns rhlR-rhlI system. As to the kind of experiment: Bioluminescence QS reporter bacteria, rhlRI. The format is cell-based, P. aeruginosa. The settings on record: Pseudomonas aeruginosa. On the procedure: (§2) FIGS. 13A-13C include vertical bar graphs showing the dose response inhibition of QS by PL-18. Bioluminescence indicator bacteria containing the P. aeruginosa reporter genes rhlRI (13A) and lasRI (13B) were used. The reporter bacteria were incubated with and range of PL-18 concentrations or DMSO, together with (+AI) or without (−AI) the proper auto-inducer. Bioluminescence was recorded at 15 min intervals for 10 hrs at 37° C. The maximum signal in each group was normalized to the inducer's bioluminescence maximum signal with 0.5% DMSO. Mean±SD, One-way ANOVA followed by Dunett's multiple comparisons test was performed (p-value ***≤0.0002). N=9 (triplicate samples in three independent experiments). (13C) RT-qPCR of P. aeruginosa (PA01) QS genes. PA01 was co-incubated with two doses of PL-18 for seven hours, lysed and total RNA was extracted and converted to cDNA followed by target genes qPCR amplification. N≥16, Mean±SD. Two-way ANOVA, 95% confidence interval.
(§3) The inhibition of rhlR-rhlI system was slightly better than the inhibition of lasR-lasI. […] The relative transcription levels of QS genes lasR, lasI, rhlR and rhlI, was determined by RT-qPCR.

The next data set has as its system lasR-lasI. As to the kind of experiment: Bioluminescence QS reporter bacteria, lasRI. The settings on record: Pseudomonas aeruginosa. It counts as cell-based, P. aeruginosa. On the procedure: as §2, §3
Data set [3] concerns QS genes lasR, lasI, rhlR and rhlI. As to the kind of experiment: RT-qPCR of P. aeruginosa (PA01) QS genes. It counts as cell-based. The note with it: PA01 co-incubated seven hours. On the procedure:
as §2, §3

For data set [4], the system named is P. aeruginosa. As to the kind of experiment: Motility of P. aeruginosa. It counts as cell-based. The note with it: data not shown.
For data set [5], the system named is P. aeruginosa. As to the kind of experiment: Toxicity to P. aeruginosa (CFU scoring, kinetic O.D.600nm). It counts as cell-based. The note with it: at the concentrations tested, data not shown. On the procedure: The inventors also determined the toxicity of PL-18 to P. aeruginosa. Viability was tested by scoring CFUs of PL-18 treated P. aeruginosa cultures and bacterial growth was determined by incubation with PL-18 for kinetic O.D.600nm measurements.

Broadly, the IC50 is the concentration needed to halve the response being measured. For orientation: inhibition means the share of the control response that was lost under treatment. Consider `COc1cc(/C=C/C(=O)N2CCC=CC2=O)cc(O)c1O` [PL-18, Dihydroxy piperlongumine], for which, in data set [1] (Table 2, piperlongumine derivatives), the “Degree of quorum sensing inhibition (QSI), KYC55” value is on record as “+++”. The “QSI activity against KYC55, in words” value in [1] (running text) is on record as “strong quorum sensing inhibition”. Besides, the Antibacterial entry in [2] is listed as “−”. The compound also came in with a CC50 at 48 h in the data set “in vitro” of 9.3 µM. Besides, the Cytotoxic entry in the data set with L428 cells is “+”. Also, the IC50 with rhlR-rhlI system (read-out: IC50, rhlR-rhlI) was found to be 18 µM; in the data set on lasR-lasI (read-out: IC50, lasR-lasI) it was 22 µM. Moreover, the inhibition at 160 µM in the data set on rhlR-rhlI system (read-out: Inhibition of rhlR-rhlI) turned out to be 85.6%; with lasR-lasI (read-out: lasR-lasI inhibition), 76.8%. Besides, the “Relative transcription levels of QS genes lasR, lasI, rhlR and rhlI” value in data set [3] is on record as “strongly decreased”. The Inhibition of motility entry in the data set on P. aeruginosa [4] is listed as “not shown to inhibit; also recorded: not found to inhibit”. Further, the “Effect on P. aeruginosa growth (O.D.600nm)” value with P. aeruginosa [5] is given as “did not affect P. aeruginosa growth”. Further, the “Toxicity to P. aeruginosa (viability, CFUs)” value in the data set on P. aeruginosa [5] is recorded as “non-toxic”.
